Results published in PMC11597150, “Antibacterial Activity of AXOTL-13, a Novel Peptide Identified from the Transcriptome of the Salamander Ambystoma mexicanum” (Pharmaceutics, 2024).
In brackets after ≈: the same amount, converted by molar mass. Where a SMILES comes first, the peptide text is derived from it.

Columns and labels:
[1] = test system: Escherichia coli ATCC 25922; assay type: cell-based; conditions: for inhibitory effect on bacterial growth: microdilution in TSB, 8.7-70 μM, 20 h at 37 °C, absorbance 600 nm
Experimental: (§1) To establish the minimum inhibitory concentration (MIC), the microdilution-in-broth protocol for AMPs proposed by Wiegand et al. (2008) was performed. Bacterial strains Escherichia coli ATCC 25922 and Staphylococcus aureus ATCC 25923 were cultured in tryptic soy agar (TSA). For the assay, 5 bacterial colonies were taken, dissolved in tryptic soy broth (TSB), and incubated at 37 °C until reaching 0.5 on the McFarland scale (1 × 10^8 CFU/mL). Subsequently, a dilution was made to achieve a final concentration of 5 × 10^5 CFU/mL. A 96-well plate was used for the assay in which each bacterial strain was exposed to different concentrations of the peptides to be evaluated: 70 μM, 35 μM, 17.5 μM, and 8.7 μM. Different controls were employed: TSB medium served as the sterility control and blank; bacteria without treatment were utilized as the negative control; and bacteria exposed to the Ramosin peptide at 40 μM [31] and sodium hypochlorite at 0.06% were employed as positive controls. Each treatment was performed in triplicate, and each assay was carried out on two different days. The plate was incubated for 20 h at 37 °C in a Multiskan Sky (Thermo Fisher, Waltham, MA, USA), reading the absorbance at a wavelength of 600 nm every hour.
(§2) The results were read in two ways: an endpoint analysis in which the absorbances of the wells were read at 20 h of treatment, to determine the inhibitory effect of the peptide, and a bacterial growth kinetics analysis in which the behavior of the peptide throughout the assay was observed, identifying a bactericidal or bacteriostatic action.

[2] = test system: Staphylococcus aureus ATCC 25923; assay: Broth microdilution MIC / growth inhibition; assay type: cell-based; conditions: microdilution in TSB, 8.7-70 μM, 20 h at 37 °C, absorbance 600 nm
Experimental: as §1, §2

Molecule	minimum inhibitory concentration (MIC) ([1]; ATCC 25922, 20 h)	inhibitory effect on bacterial growth [1]	inhibitory effect on bacterial growth [2]
CC[C@H](C)[C@H](NC(=O)[C@H](CO)NC(=O)[C@H](Cc1ccccc1)NC(=O)CN)C(=O)N[C@@H](CO)C(=O)N[C@@H](CC(C)C)C(=O)N[C@@H](CCCCN)C(=O)N[C@@H](CCCNC(=N)N)C(=O)N[C@@H](CC(C)C)C(=O)N[C@@H](CCC(N)=O)C(=O)N[C@@H](CCCCN)C(=O)N[C@@H](CCSC)C(=O)N[C@@H](CC(C)C)C(=O)O [AXOTL-13] (H-GFSISLKRLQKML-OH)	35 µM (≈ 53.2 µg/mL)	–	–
Peptide 4766: 13-residue peptide LIGGQLGGLIKAL predicted from the Ambystoma mexicanum transcriptome, chemically synthesized	–	did not exert a complete inhibitory effect	did not exert a complete inhibitory effect
Peptide 4767: 13-residue peptide YITGLIAPILKSL predicted from the Ambystoma mexicanum transcriptome, chemically synthesized	–	did not exert a complete inhibitory effect	did not exert a complete inhibitory effect
Peptide 4768: 12-residue peptide VLGSILGALKAI predicted from the Ambystoma mexicanum transcriptome, chemically synthesized	–	did not exert a complete inhibitory effect	did not exert a complete inhibitory effect
Peptide 4769: 13-residue peptide LHPLIGRVIGGVI predicted from the Ambystoma mexicanum transcriptome, chemically synthesized	–	did not exert a complete inhibitory effect	did not exert a complete inhibitory effect
Peptide 4771: 13-residue peptide LLDTIGKIFGSLL predicted from the Ambystoma mexicanum transcriptome, chemically synthesized	–	did not exert a complete inhibitory effect	did not exert a complete inhibitory effect
